Laboratory results as given in US7244861B2, “Benzene compound and salt thereof” (Eisai Co., Ltd., priority 2001, dated 2007).

Legend:
Assay in all cases: Measurement of transcriptional activity, GAL4-PPAR LBD chimera / PLAP reporter in CV-1 cells
Type in all cases: cell-based
PPAR γ = molecular target: T1, PPAR γ (Homo sapiens, UniProt P37231); details: PLAP activity secreted 24 hours after addition of the compound, read-out: Transcriptional activities EC50 PPAR γ
T1 construct: 174–475 (PPAR) amino acid regions; expressed in transfected cells; host or cells: CV-1 (ATCC CCL-70)
T1 sequence (P37231 174-475 isoform P37231-2): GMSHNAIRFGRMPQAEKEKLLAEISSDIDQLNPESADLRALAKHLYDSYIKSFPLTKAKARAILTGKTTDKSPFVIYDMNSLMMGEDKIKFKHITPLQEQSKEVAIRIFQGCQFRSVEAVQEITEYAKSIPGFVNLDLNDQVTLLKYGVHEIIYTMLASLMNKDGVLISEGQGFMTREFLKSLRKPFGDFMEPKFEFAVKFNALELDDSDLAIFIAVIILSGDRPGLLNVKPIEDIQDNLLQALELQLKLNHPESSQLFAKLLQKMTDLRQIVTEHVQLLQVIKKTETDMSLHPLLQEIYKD
Text: (§1) Measurement of Transcriptional Activity
(§2) A GAL4-PPAR LBD chimera expression vector was constructed by ligating human PPAR 167–468 (PPAR), 138–440 (NUC-1) and 174–475 (PPAR) amino acid regions (LBD: Ligand Binding Domain) to a yeast transcriptional factor GAL4 1–147 amino acid region. As the reporter gene, PLAP (Placental Alkaline Phosphatase) was used, and this was ligated downstream of a TK promoter containing a 5-copy GAL4 DNA binding element to construct a vector. As host cells, CV-1 (ATCC CCL-70) was used. That is, CV-1 cells were spread at a density of 5×10^5 cells on a 35-mm dish and cultured in 10% FCS/DMEM for 24 hours, and using FuGENE 6 transfection reagent, the cells were co-transfected with the GAL4-PPAR LBD expression vector and GAL4 DBD-TK-PLAP expression vector. 24 hours after this transfection, the cells were spread again on a 96-well plate at a density of 1×10^4/well and further cultured for 24 hours. After 24 hours, the medium was exchanged with DMEM containing 10% FCS, which was previously treated at 65° C. for inactivating intrinsic alkaline phosphatase, and a test compound was added at an arbitrary concentration. The transcriptional activity was determined in terms of PLAP activity secreted 24 hours after addition of the compound, to calculate EC50. The PLAP activity was determined after adding 50 μl assay buffer and 50 μl chemoluminescence substrate to 10 μl culture supernatant and incubating the mixture at room temperature for 1 hour. The transcriptional activities for PPARα, PPARβ(δ) and PPARγ are shown respectively in Table 1.

PPAR β = molecular target: T2, PPAR β (Homo sapiens, UniProt Q03181); details: PLAP activity secreted 24 hours after addition of the compound, read-out: Transcriptional activities EC50 PPAR β
T2 construct: 138–440 (NUC-1); expressed in transfected cells; host or cells: CV-1 (ATCC CCL-70)
T2 sequence (Q03181 138-440): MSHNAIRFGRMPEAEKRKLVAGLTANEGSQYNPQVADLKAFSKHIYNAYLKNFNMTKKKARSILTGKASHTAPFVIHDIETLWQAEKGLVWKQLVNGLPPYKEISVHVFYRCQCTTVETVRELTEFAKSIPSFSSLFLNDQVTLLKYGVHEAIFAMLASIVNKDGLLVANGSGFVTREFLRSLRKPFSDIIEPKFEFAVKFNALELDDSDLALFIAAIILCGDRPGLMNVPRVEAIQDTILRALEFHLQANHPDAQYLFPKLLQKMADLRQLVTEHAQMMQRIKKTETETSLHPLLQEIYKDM
Text: as §1, §2

PPAR α = molecular target: T3, PPAR α (Homo sapiens, UniProt Q07869); details: PLAP activity secreted 24 hours after addition of the compound, read-out: Transcriptional activities EC50 PPAR α
T3 construct: human PPAR 167–468 (PPAR); expressed in transfected cells; host or cells: CV-1 (ATCC CCL-70)
T3 sequence (Q07869 167-468): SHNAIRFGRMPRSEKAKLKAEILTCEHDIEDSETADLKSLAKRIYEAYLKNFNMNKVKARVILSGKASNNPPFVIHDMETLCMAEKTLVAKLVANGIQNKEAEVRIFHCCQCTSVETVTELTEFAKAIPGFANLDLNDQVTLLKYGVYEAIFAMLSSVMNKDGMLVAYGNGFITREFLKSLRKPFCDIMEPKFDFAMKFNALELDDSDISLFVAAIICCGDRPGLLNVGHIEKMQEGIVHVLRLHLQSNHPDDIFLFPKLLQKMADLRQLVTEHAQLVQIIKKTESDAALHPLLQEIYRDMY
Text: as §1, §2

Row | EC50 (PPAR γ) | EC50 (PPAR β) | EC50 (PPAR α) | SMILES
1 | 5.8 nM | 1000 nM | 10.8 nM | COc1ccc(CC(OC(C)C)C(=O)O)c(OC)c1CNC(=O)c1ccc(OC2CCCC2)cc1Cl (stereo not drawn) [Example 11, 3-(3-[(2-Chloro-4-cyclopentyloxybenzoyl)amino]methyl-2,4-dimethoxyphenyl)-2-isopropoxypropionic acid]
2 | 52.4 nM | 483 nM | 66.5 nM | CC(C)OC(Cc1cc(CNC(=O)c2ccc(C(F)(F)F)cc2F)c2occc2c1)C(=O)O (stereo not drawn) [Example 35]
3 | 3.4 nM | 1600 nM | 17.9 nM | CC(C)Oc1ccc(C(=O)NCc2cc(CC(OC(C)C)C(=O)O)cc3c2OCC3)c(Cl)c1 (stereo not drawn) [Example 42, 3-(7-[(2-Chloro-4-isopropoxybenzoyl)amino]methyl-2,3-dihydrobenzo[b]furan-5-yl)-2-isopropoxypropionic acid]
